Measured values from patent US11020408B2, “Polymer composed of repeat units having a biologically active molecule attached thereto via a pH-sensitive bond” (SPIREA LIMITED, priority 2014, dated 2021).

System: Mycobacterium bovis BCG-lux grown in human monocyte-derived macrophages
Assay type: cell-based

CC[C@@H](CO)NCCN[C@@H](CC)CO [EMB, ethambutol]
effect on BCG-lux viability (in words): did not reduce BCG-lux viability

NNC(=O)c1ccncc1 [INH, isoniazid]
antibiotic efficacy (in words): equivalent to the antibiotic efficacy of E80 nanoparticles
antimycobacterial activity (in words): no antimycobacterial activity
increase of BCG-lux bioluminescence compared to untreated cells: 32%
reduction of BCG-lux bioluminescence: 53%
viability lower than control cells: 15%
